By ED50 is commonly meant the dose that gives a 50% effect, or the effect in half of the subjects.

The text below walks through data of patent US4684748A, “Anticonvulsant agents” (Eli Lilly and Company, priority 1985, dated 1987).

The structures appear in SMILES notation. Where a name gives a salt, the structure may show the parent alone.

One assay relates to tonic extensor seizures elicited by maximal electroshock. Briefly: electroshock induced convulsion inhibition assay (E.S.). The settings on record: Mus musculus; oral dose (gavage), mice, 0.1 second 50 milliampere corneal electroshock; at the time after dosing providing an optimal response. It counts as in vivo, Cox standard strain albino male mice. From the text:
The compounds of Formula I are anticonvulsant agents with a high therpeutic ratio and long half-life and are therefore useful in the treatment and prevention of convulsions in mammals. […] The compounds are effective against tonic extensor seizures elicited by maximal electroshock and should therefore be useful for treating generalized tonic-clonic ("grand mal"), cortical focal, complex partial (temporal lobe epilepsy), simple partial (focal moor), and post-traumatic seizures in humans. […] In the electroshock induced convulsion inhibition assay (E.S.), the compound to be tested was suspended in acacia and administered by gavage to each of ten Cox standard strain albino male mice (18-24 g) at the dose level being investigated. […] The animals were examined and evaluated immediately after the electroshock for the occurrence of clonic, flexor tonic, or extensor tonic convulsions, or death and the ED50 was determined for each compound as the dose which inhibited the occurrence of extensor tonic convulsions in one half of the animals immediately after the electroshock. For comparison, 18 milliamperes was usually sufficient to produce extensor tonic convulsions in about half of the control animals; at 50 milliamperes, almost all control animals (receiving vehicle only) […]. The test results summarized in Table I are reported as the ED50 values at the time interval found to provide an optimal response after dosing.
As for `Cc1cc(C(=O)NC(C)c2ccccc2)cc(C)c1N` (racemic) [Example 22, (R,S)-4-amino-3,5-dimethyl-N-(1-phenylethyl)benzamide], it took a dose of 26.7 mg/kg to reach the 50% effect level (ED50).
The compound `Cc1cc(C(=O)NCc2ccccc2C)ccc1N` [Example 18, 4-Amino-3-methyl-N-(2-methylbenzyl)benzamide] had an ED50 of 16.3 mg/kg.
On the same count and under the same terms, to `Cc1cc(C(=O)Nc2ccccc2C)ccc1N` [Example 16, 4-Amino-3-methyl-N-(2-methylphenyl)benzamide] belongs 5.4 mg/kg; to `Cc1cc(C(=O)Nc2c(C)cccc2C)ccc1N` [Example 14, 4-Amino-N-(2,6-dimethylphenyl)-3-methylbenzamide], 3.8 mg/kg; to `Cc1cc(C(=O)NCc2ccccc2)ccc1N.Cl` [Example 19, 4-Amino-3-methyl-N-benzylbenzamide hydrochloride], 9.6 mg/kg.
Compound `Cc1cc(C(=O)Nc2c(C)cccc2C)cc(C)c1N` [Example 15, 4-Amino-N-(2,6-dimethylphenyl)-3,5-dimethylbenzamide] showed an ED50 of 5.6 mg/kg.
On the same count and under the same terms, the result for `Cc1cc(C(=O)NC(C)c2ccccc2)ccc1N` (racemic) [Example 12, (R,S)-4-amino-3-methyl-N-(1-phenylethyl)benzamide hydrochloride] reads 20 mg/kg; that for `Cc1cc(C(=O)N[C@@H](C)c2ccccc2)cc(C)c1N` [Example 21, (S)-4-amino-3,5-dimethyl-N-(1-phenylethyl)benzamide], 60.5 mg/kg; that for `Cc1cc(C(=O)N[C@H](C)c2ccccc2)cc(C)c1N` [Example 20, (R)-4-amino-3,5-dimethyl-N-(1-phenylethyl)benzamide], 46.8 mg/kg.
On the same count and under the same terms, the result for `Cc1cc(C(=O)NCc2ccccc2)cc(C)c1N` [Example 17, 4-Amino-3,5-dimethyl-N-benzylbenzamide] reads 75 mg/kg; that for `Cc1ccccc1CNC(=O)c1cc(C)c(N)c(C)c1` [Example 13, 4-Amino-3,5-dimethyl-N-[(2-methylphenyl)methyl]benzamide], 20 mg/kg.

For a further assay, the system named is seizures.
Assay: not given
The settings on record: man; cited from earlier work.
As to `O=C1NC(=O)C(c2ccccc2)(c2ccccc2)N1` [phenytoin], the “plasma level at which seizures are controlled” value was 10 µg/mL.
